Data reported in the NIST ThermoML archive (doi:10.1021/je400486p).

How the values were obtained:
[1] = refractive index (Na D-line) (dimensionless); xn = mol fraction of the nth substance listed; conditions: 101.3 kPa, Liquid, Standard Abbe refractometry, x1 = 1
[2] = xn = mol fraction of the nth substance listed; conditions: 101.3 kPa, Liquid, x1 = 1; for viscosity: Concentric cylinders viscometry; for mass density: Vibrating tube method
[3] = refractive index (Na D-line) (dimensionless); conditions: 101.33 kPa, Liquid, Standard Abbe refractometry
[4] = 101.3 kPa, Liquid; for viscosity: Concentric cylinders viscometry; for mass density: Vibrating tube method

CCC(C)O (stereo not given) [butan-2-ol] + CN1CCCC1=O
Conditions	mass density, [2] [kg/m3]	refractive index, [1]	viscosity, [2] [mPa·s]
288.15 K	810.654	1.39959	4.29
293.15 K	806.62	1.39748	3.576
298.15 K	802.502	1.39534	2.954
303.15 K	798.302	1.39314	2.469
308.15 K	794.003	1.39086	2.08
313.15 K	789.609	1.38851	1.766
318.15 K	785.109	1.38617	1.512
323.15 K	780.499	1.38372	1.303

CN1CCCC1=O [N-methylpyrrolidone]
Conditions	mass density, [4] [kg/m3]	refractive index, [3]	viscosity, [4] [mPa·s]
288.15 K	1037.3	1.47166	1.99
293.15 K	1032.84	1.46952	1.823
298.15 K	1028.38	1.46736	1.679
303.15 K	1023.92	1.4652	1.555
308.15 K	1019.46	1.46306	1.444
313.15 K	1015	1.46095	1.346
318.15 K	1010.53	1.45891	1.259
323.15 K	1006.06	1.4568	1.182

CCC(C)O (stereo not given) [butan-2-ol]
Conditions	mass density, [4] [kg/m3]	refractive index, [3]	viscosity, [4] [mPa·s]
288.15 K	810.654	1.39959	4.29
293.15 K	806.62	1.39748	3.576
298.15 K	802.502	1.39534	2.954
303.15 K	798.302	1.39314	2.469
308.15 K	794.003	1.39086	2.08
313.15 K	789.609	1.38851	1.766
318.15 K	785.109	1.38617	1.512
323.15 K	780.499	1.38372	1.303

COCCOCCOCCOCCOC [2,5,8,11,14-pentaoxapentadecane]
Conditions	mass density, [4] [kg/m3]	refractive index, [3]	viscosity, [4] [mPa·s]
288.15 K	1015.63	1.4345	4.341
293.15 K	1011	1.43238	3.834
298.15 K	1006.36	1.43027	3.38
303.15 K	1001.73	1.42815	3.004
308.15 K	997.104	1.42603	2.691
313.15 K	992.481	1.42394	2.426
318.15 K	987.859	1.42183	2.199
323.15 K	983.234	1.41973	2.006

CCC(C)O (stereo not given) [butan-2-ol] + COCCOCCOCCOCCOC
Conditions	mass density, [2] [kg/m3]	refractive index, [1]	viscosity, [2] [mPa·s]
288.15 K	810.654	1.39959	4.29
293.15 K	806.62	1.39748	3.576
298.15 K	802.502	1.39534	2.954
303.15 K	798.302	1.39314	2.469
308.15 K	794.003	1.39086	2.08
313.15 K	789.609	1.38851	1.766
318.15 K	785.109	1.38617	1.512
323.15 K	780.499	1.38372	1.303
